From BindingDB's records for doi:10.1016/0960-894X(95)00494-E (1995)

Molecular target: Xaa-Pro dipeptidase (Sus scrofa)
Assay: Inhibitory activity against porcine kidney prolidase

NCC(=O)[C@@H]1CCC[C@H]1C(=O)O [2-((1R,2R)-2-Carboxy-cyclopentyl)-2-oxo-ethyl-ammonium; chloride]
Ki: 0.27 µM
